The results in this text go back to patent publication US11447504B2, “Macrocyclic chlorine substituted indole derivatives” (Bayer Aktiengesellschaft, priority 2017, dated 2022).

Like-named read-outs stand apart in the source and are kept apart here. Where only a bound is given, the exact number is not on record here.

The target of series [1] is SUDHL5. Put plainly: Induction of caspase-3/7 activity (Assay 4), SUDHL5. Conditions: SUDHL5 cells, 3 hours, Caspase-Glo 3/7; read-out: Caspase SUDHL5 EC50 (median). The class given is cell-based. In a few lines: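 DLBCL cells treated with compounds for 3 hours at 37° C. Caspase-3/7 activity measured by Caspase-Glo 3/7 luminescence, with medium-only background subtracted.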

In the next series the test system is AMO-1. The series can be described thus: Antiproliferation assay 7, AMO-1. In kind it is cell-based. Conditions: AMO-1 cells, 72 hours, CellTiter-Glo; read-out: Antiproli AMO-1 IC50 median. In short, it runs like this:
(§1)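 Plate cells in treatment and day 0 reference plates; read day 0 plate with CellTiter-Glo after 10 min; incubate treated plates 72 h at 37° C; read them identically.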
For orientation: Cellular ATP, detected with luciferase, serves as a proxy for viable cell number.

Series [2] deals with SUDHL10. Put plainly: Antiproliferation assay 7, SUDHL10. In kind it is cell-based. The conditions noted are these: SUDHL10 cells, 72 hours, CellTiter-Glo; read-out: Antiproli SUDHL10 IC50 (median). The procedure:
(§2) Assessment of the Anti-Proliferative Effect of Compounds in Different Cell Lines
(§3) The impact of compounds on the proliferation of different cell lines was assessed using the CellTiter-Glo® Luminescent Cell Viability reagent from Promega (G7573).
(§4) In parallel, cells were plated in a reference (day 0) plate for time zero determination.
(§5) Rim wells were excluded. The cells were incubated for 72 hours in a humidified incubator at 37° C. The day 0 plate was measured by adding 30 μL/well of CTG solution (CellTiter-Glo® Luminescent Cell Viability reagent, Promega G7573) to time zero wells in the reference plate followed by a 10 minutes incubation and luminescence reading at 0.1 ms. using the PHERAstar FS microplate reader (BMG Labtech).
(§6) After 72 hours incubation, the treated plates were measured in the same way as the day 0 plate mentioned above.

In series [3] the test system is SUDHL5. Put plainly: Antiproliferation assay 7, SUDHL5. In kind it is cell-based. Conditions: SUDHL5 cells, 72 hours, CellTiter-Glo; read-out: Antiproli SUDHL5 IC50 (median). In a few lines: as §1
A further series deals with MV-4-11. The series can be described thus: Antiproliferation assay 7, MV-4-11. Conditions: MV-4-11 cells, 72 hours, CellTiter-Glo; read-out: Antiproli MV-4-11 IC50 median. In kind it is cell-based. In a few lines: as §1
In series [4] the test system is SUDHL5. The series can be described thus: Induction of cytotoxicity (Assay 6), SUDHL5. The conditions noted are these: read-out: Cytotox SUDHL5 IC50 (median); SUDHL5 cells, 5 hours, CellTiter-Glo.
Series [5] has as its system SUDHL10. The series can be described thus: Induction of cytotoxicity (Assay 6), SUDHL10. The conditions noted are these: read-out: Cytotox SUDHL10 IC50 (median); SUDHL10 cells, 5 hours, CellTiter-Glo.
Series [6] concerns the target SUDHL10. Put plainly: Induction of caspase-3/7 activity (Assay 4), SUDHL10. The class given is cell-based. Conditions: SUDHL10 cells, 3 hours, Caspase-Glo 3/7; read-out: Caspase SUDHL10 EC50 (median). In short, it runs like this: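 Luminescent Caspase-Glo 3/7 read-out after a 3 h, 37 °C compound exposure of the DLBCL line SUDHL10. Values are background-corrected using medium-only wells.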

The next series deals with SK-BR-3. The series can be described thus: Antiproliferation assay 7, SK-BR-3. The class given is cell-based. The conditions noted are these: SK-BR-3 cells, 72 hours, CellTiter-Glo; read-out: Antiproli SK-BR-3 IC50 median. The procedure:
as §2, §3, §4, §5, §6

Series [7] addresses T1, MCL-1 (Homo sapiens (Human), UniProt Q07820, K194A/K197A/R201A). Put plainly: Protein-compound interaction assay (SPR assay 8). In kind it is binding. The conditions noted are these: immobilized MBP-MCL-1, 25° C. The text has this: Assay 8 Protein-Compound Interaction Assay (SPR Assay)
The ability of the compounds described in this invention to bind to MCL-1 may be determined using surface plasmon resonance (SPR). This allows for the quantification of binding in terms of the equilibrium dissociation constant (KD [M]), as well as association and dissociation rate constants (kon [1/M 1/s] and koff [1/s], respectively). The measurements may be performed using Biacore® T200 or Biacore® S200 instruments (GE Healthcare).
MBP-MCL-1 was diluted in 1×PBS-P+ (GE Healthcare) and injected on the activated chip surface. Subsequently, a solution of 1 M ethanolamine-HCl (GE Healthcare) was injected to block unreacted groups, resulting in approximately 400-2500 response units (RU) of immobilized protein. A reference surface was generated by treatment with NHS-EDC and ethanolamine-HCl.
The double-referenced sensorgrams were fit to a simple reversible Langmuir 1:1 reaction mechanism as implemented in the Biacore® T200 and S200 evaluation software (T200 evaluation software version 2.0 and S200 evaluation software version 1.0, GE Healthcare).
On the technique in general: In SPR one partner is held on a chip, and binding of the other changes the refractive index at the surface.

The next series addresses BCL-2 (Homo sapiens (Human), UniProt P10415). Put plainly: Protein-protein interaction assay BCL-2/Bad BH3 peptide (BCL-2 Assay, TR-FRET). In kind it is binding. The conditions noted are these: read-out: BCL-2 Assay IC50 (median). The procedure:
The dose-dependent inhibition by the compounds described in this invention of the interaction between BCL-2 and the BH3 domain of Bad (both human) was determined using a steady state binding competition assay with time-resolved fluorescence energy transfer (TR-FRET) readout.
For that, 100-fold concentrated DMSO solutions were prepared by serial dilutions (1:3.4) of a 2 mM stock solution in a clear, 384-well microtiter plate (Greiner Bio-One, Frickenhausen, Germany). From there, 50 nl were transferred in a dark test plate (Greiner Bio-One, Frickenhausen, Germany). […] This was followed by a 10-minute incubation step at 22° C. for pre-equilibration of the putative complex between His-BCL-2 and the compounds.
The mixture was incubated in the dark for one hour at 22° C. and then overnight at 4° C.
(§7) The resulting data (ratio) were normalized, taking 0% inhibition as the mean value of control measurements (usually 32 data points) where all reagents were included. In this case 50 nl DMSO were used instead of compounds. […] IC50 values were determined by regression analysis based on a 4 parameter equation (minimum, maximum, IC50, Hill; Y=Max+(Min−Max)/(1+(X/IC50)^Hill) using the Screener Software (Genedata).
On the technique in general: In TR-FRET formats the signal depends on donor and acceptor labels being close together.

The target in series [8] is T1, MCL-1. The series can be described thus: Protein-protein interaction assay MCL-1/Noxa BH3 peptide (MCL-1 Assay, TR-FRET). The class given is binding. The conditions noted are these: read-out: MCL-1 Assay IC50 (median).
The next series deals with BCL-XL (Homo sapiens (Human), UniProt Q07817). Put plainly: Protein-protein interaction assay BCL-XL/Bad BH3 peptide (BCL-XL Assay, TR-FRET). Conditions: read-out: BCL-XL Assay IC50 (median). The class given is binding. The procedure:
Assay 2 Protein-Protein Interaction Assay: BCL-XL/Bad BH3 Peptide (BCL-XL Assay)
The dose-dependent inhibition by the compounds described in this invention of the interaction between BCL-XL and the BH3 domain of Bad (both human) was determined using a steady state binding competition assay with time-resolved fluorescence energy transfer (TR-FRET) readout.
For that, 100-fold concentrated DMSO solutions were prepared by serial dilutions (1:3.4) of a 2 mM stock solution in a clear, 384-well microtiter plate (Greiner Bio-One, Frickenhausen, Germany). From there, 50 nl were transferred in a dark test plate (Greiner Bio-One, Frickenhausen, Germany). […] This was followed by a 10-minute incubation step at 22° C. for pre-equilibration of the putative complex between His-BCL-XL and the compounds.
The mixture was incubated in the dark for one hour at 22° C. and then overnight at 4° C. The formation of BCL-XL/Bad complexes was determined by measuring the resonance energy transfer of the anti-His- Eu-cryptate antibody to the streptavidin-XL665 present in the reaction.
as §7

For a further series, the system named is HMC-1-8. Put plainly: Antiproliferation assay 7, HMC-1-8. In kind it is cell-based. The conditions noted are these: HMC-1-8 cells, 72 hours, CellTiter-Glo; read-out: Antiproli HMC-1-8 IC50 median. In a few lines: as §1
Series [9] deals with SUDHL5.
Series [10] deals with SUDHL10.

T1 sequence (Q07820 whole entry K194A/K197A/R201A, looked up): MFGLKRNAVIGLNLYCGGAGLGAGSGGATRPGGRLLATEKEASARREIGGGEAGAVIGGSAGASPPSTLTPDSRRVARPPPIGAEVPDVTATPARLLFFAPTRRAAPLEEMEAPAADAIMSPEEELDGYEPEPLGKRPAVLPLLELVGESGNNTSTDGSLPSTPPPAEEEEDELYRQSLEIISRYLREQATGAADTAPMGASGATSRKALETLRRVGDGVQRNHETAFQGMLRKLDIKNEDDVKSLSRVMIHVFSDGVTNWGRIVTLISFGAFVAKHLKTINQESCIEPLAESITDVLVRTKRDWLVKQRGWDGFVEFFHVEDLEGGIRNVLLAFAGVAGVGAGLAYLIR
Sequence of BCL-2 (P10415 other isoform, or with tags, fused parts or gaps): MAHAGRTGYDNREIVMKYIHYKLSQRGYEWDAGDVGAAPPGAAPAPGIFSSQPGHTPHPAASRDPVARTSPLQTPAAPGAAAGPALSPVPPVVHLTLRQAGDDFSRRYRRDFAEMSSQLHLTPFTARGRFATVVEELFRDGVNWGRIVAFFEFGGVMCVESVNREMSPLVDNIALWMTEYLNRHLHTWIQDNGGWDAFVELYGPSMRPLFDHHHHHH
Sequence of BCL-XL (Q07817 other isoform, or with tags, fused parts or gaps): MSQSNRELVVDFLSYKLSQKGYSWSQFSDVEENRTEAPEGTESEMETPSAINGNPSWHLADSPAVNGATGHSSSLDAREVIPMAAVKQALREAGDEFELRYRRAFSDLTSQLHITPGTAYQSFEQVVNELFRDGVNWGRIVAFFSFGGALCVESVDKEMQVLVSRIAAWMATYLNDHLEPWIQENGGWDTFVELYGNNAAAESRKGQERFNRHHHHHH

Turning to “4-chloro-3-ethyl-1-[2-(morpholin-4-yl)ethyl]-7-[3-(naphthalen-1-yloxy)propyl]-1,10,11,12,13,15-hexahydropyrazolo[4′,3′:9,10][1,6]oxazacycloundecino[8,7,6-hi]indole-8-carboxylic acid-N-ethylethanamine Salt (Enantiomer 1) [Example 9]”, the values for the half-maximal effective concentration (EC50) at SUDHL5 [1] and on SUDHL10 [6] were 270 nM and 330 nM, respectively. Besides, the IC50 (usually the concentration that gives 50% inhibition) is 874 nM in the series on AMO-1; 270 nM in the series with SUDHL10 [2]; 370 nM in the series on SUDHL5 [3]; 823 nM with MV-4-11; 290 nM in the series on SUDHL5 [4]; 340 nM in the series on SUDHL10 [5]. Moreover, the IC50 with SK-BR-3 is 1080 nM; on BCL-2, > 20000 nM; at MCL-1 [8] it was 0.47 nM; at BCL-XL it was > 20000 nM. For the same molecule, the “koff (geo mean)” value on MCL-1 [7] was determined as 0.0096 s⁻¹. Moreover, the “kon (geo mean)” value on MCL-1 [7] is given as 8.7E6 1/M 1/s. On MCL-1 [7] (read-out: KD (geo mean)), the Kd – broadly, the concentration at which binding is half-saturated – came to 1.1 nM.

In the case of “(rac)-4-chloro-12,12-difluoro-2,3-dimethyl-7-{3-[(naphthalen-1-yl)oxy]propyl}-2,10,11,12,13,15-hexahydropyrazolo[4′,3′:9,10][1,6]oxazacycloundecino[8,7,6-hi]indole-8-carboxylic Acid [Example 55]”, the IC50 came to 5750 nM with HMC-1-8; 1710 nM in the series on AMO-1; 620 nM in the series with SUDHL5 [3]; 840 nM in the series with SUDHL5 [9]; 2000 nM in the series with SUDHL10 [10]; 18800 nM on BCL-2. The concentration for half-maximal inhibition (IC50) on MCL-1 [8] is 2.3 nM; on BCL-XL, > 20000 nM. Besides, the results for the concentration for a half-maximal effect (EC50) on SUDHL5 [1] and on SUDHL10 [6] were 510 nM and 1500 nM, respectively.

As for `Cc1nn(C)c2c1-c1cccc3c(CCCOc4cccc5ccccc45)c(C(=O)O)n(c13)CCCCN2Cc1ccccc1` [Example 69, (rac)-8-benzyl-9,11-dimethyl-1-[3-(1-naphthyloxy)propyl]-4,5,6,7,8,9-hexahydropyrazolo[4′,3′:4,5][1,6]diazecino[3,2,1-hi]indole-2-carboxylic Acid], the EC50 – broadly, the concentration needed to bring the measured effect to its halfway point – on SUDHL5 [1] is > 33000 nM; on SUDHL10 [6] it was 22000 nM. In addition, the IC50 was found to be 6300 nM in the series on SUDHL10 [2]; 14000 nM in the series on SUDHL5 [3]; 21000 nM in the series on SUDHL5 [9]; 32000 nM in the series on SUDHL10 [10]; 350 nM at MCL-1 [8].

On to “(rac)-4-chloro-3-ethyl-1-[2-(morpholin-4-yl)ethyl]-7-[3-(naphthalen-1-yloxy)propyl]-1,10,11,12,13,15-hexahydropyrazolo[4′,3′:9,10][1,6]oxazacycloundecino[8,7,6-hi]indole-8-carboxylic Acid [Example 8]”, for which the values for the EC50 at SUDHL5 [1] and on SUDHL10 [6] were 290 nM and 360 nM, respectively. Besides, the IC50 with AMO-1 was 1180 nM; in the series on SUDHL5 [3], 470 nM; in the series on MV-4-11, 1100 nM; with SUDHL5 [9], 350 nM; in the series with SK-BR-3, 3000 nM; with SUDHL10 [10] it was 450 nM. At MCL-1 [8], the IC50 was determined as 0.89 nM.

`Cc1nn(C)c2c1-c1cccc3c(CCCOc4cccc5ccccc45)c(C(=O)O)n(c13)CCCCN2` [Example 70, (rac)-9,11-dimethyl-1-[3-(1-naphthyloxy)propyl]-4,5,6,7,8,9-hexahydropyrazolo[4′,3′:4,5][1,6]diazecino[3,2,1-hi]indole-2-carboxylic Acid]: the EC50 on SUDHL5 [1] is > 33000 nM; on SUDHL10 [6], 29000 nM. For the same molecule, the IC50 in the series on SUDHL10 [2] was 15000 nM; in the series with SUDHL5 [3], > 33000 nM; with SUDHL5 [9], > 33000 nM; in the series on SUDHL10 [10] it was > 33000 nM; at MCL-1 [8] it was 43 nM.

“(rac)-4-chloro-14-(2,2-difluoroethyl)-3-ethyl-7-{3-[(6-fluoronaphthalen-1-yl)oxy]propyl}-2-methyl-10,11,12,13,14,15-hexahydro-2H-pyrazolo[3′,4′:8,9][1,6]diazacycloundecino[10,11,1-hi]indole-8-carboxylic Acid [Example 62]”: the EC50 at SUDHL5 [1] turned out to be 270 nM. Further, the IC50 in the series with SUDHL5 [9] came to 330 nM; on MCL-1 [8], 2.7 nM.
